Laboratory results taken from patent publication US20170027954A1, “METHODS OF ENHANCING ANTIBODY-DEPENDENT CELLULAR CYTOTOXICITY” (VENTIRX PHARMACEUTICALS, INC., priority 2010, published 2017).

Assays:
Type in all cases: cell-based, human
[1] = system: breast cancer cell line SKBR3; assay: Herceptin-mediated ADCC of SKBR3 cells by PBMC effector cells; details: PBMCs activated with the ADCC enhancer; FIG. 3
Protocol: (§1) Stimulation of PBMCs: Human Peripheral blood mononuclear cells (PBMCs) were isolated by Ficoll™ density gradient centrifugation and resuspended in RPMI containing 2% heat-inactivated FBS. PBMCs at a concentration of 1 to 3 million cells per mL were incubated with 10-500 nM ADCC enhancer in a humidified CO2 incubator for 18-72 hrs. Activated PBMCs were then used as effector cells in NK and ADCC assays. NK and ADCC Assays: PBMCs activated with the ADCC enhancer were tested for the ability to enhance killing of the NK sensitive target cell line K562 or various tumor cells coated with monoclonal antibodies. Target cells were labeled with the fluorescent dye Calcein AM for 1 hour at 37° C. in a dark humidified CO2 incubator. […] Activated effector cells and labeled target cells were incubated in 96-well tissue culture plates at for 4 hours at 37° C. in a dark humidified CO2 incubator in an assay buffer containing HBSS+Ca/Mg+5% FBS. […] Fluorecence was quantified with a fluorescent microtiter plate reader. The % specific lysis was calculated as (Sample fluorescence-spontaneous fluorescence)*100/(100% fluorescence-spontaneous). 100% fluorescence was determined from wells that contained labeled target cells and detergent such at 0.1% Tween-20 or Triton X-100. Spontaneous fluorescence was determined from wells that contained assay buffer and target cells but not effector cells.

[2] = system: breast cancer cell line MDA-MB-231; assay: Herceptin-mediated ADCC of MDA-MB-231 cells by PBMC effector cells; details: PBMCs activated with the ADCC enhancer; FIG. 3
Protocol: as §1

[3] = system: rituximab-coated HS-Sultan cells; assay: Rituximab-mediated ADCC of HS-Sultan cells with PBMCs from FcγR-genotyped donors; details: for rituximab-mediated ADCC, specific lysis: ratio 100:1, FIG. 5; for baseline ADCC (percent specific lysis): buffer control
Protocol: Percent specific lysis is shown for Rituxan-coated HS-Sultan cells incubated with PBMC effector cells at an E:T ratio of 50:1. PBMCs from a patient with the high affinity genotype FcgR2a131 H/H and FcgR3a V/V (solid rectangles) or a patient with the lower affinity genotype FcgR2a131 […] and FcgR3a V/F (open rectangles) were evaluated for ADCC after stimulation with buffer control (baseline) or stimulation with 500 nM ADCC enhancer.
ADCC is mediated through immune effector cells included NK cells that engage the Fc portion of the monoclonal antibody through specific receptors. Patients with single nucleotide polymorphisms in these receptors such as FcRgamma3a position 158 and FcRgamma2a position 131 have a poorer clinical prognosis presumably from poor ADCC due to a lower affinity of the receptor for the monoclonal antibody. […] To determine if this common polymorphism affects the baseline antibody-dependent cellular cytoxicity (ADCC) response and/or response to the ADCC enhancer molecule of the present invention (Compound VTX-2337), PBMCs from donors were genotyped for the two alleles encoding the F and V isoforms, respectively, and tested in vitro. We analyzed rituximab-mediated ADCC using unstimulated PBMC or VTX-2337-stimulated PBMC from 15 donors, including 10 donors with FF or FV phenotype and 5 donors with VV phenotype.
Blood was collected from healthy donors and PBMCs were isolated using a Ficoll gradient. PBMCs were activated by culturing them in the presence of 500 nM VTX-2337 at 37° C. in a humidified 5%CO2 incubator for 48 hours. Activated PBMCs were then incubated with rituximab-coated HS-Sultan cells loaded at a ratio of 100:1 for 4 hours. Lysis was determined by measuring release of the fluorescent dye Calcein AM from the HS-Sultan cells.

K562 target cells = assay: NK assay: lysis of Calcein AM labeled K562 target cells by PBMCs stimulated with the ADCC enhancer; details: FIG. 1
Protocol: as §1, with “cells. […]” for “cells.”

Molecule	cell killing of Herceptin coated SKBR3 cells [1] [%]	cell killing of Herceptin coated MDA-MB-231 cells [2]	rituximab-mediated ADCC, specific lysis ([3]; PBMC from high affinity VV donors stimulated with 500 nM VTX-2337 for 48 hours) [%]	rituximab-mediated ADCC, specific lysis ([3]; PBMC from low affinity FF/FV donors stimulated with 500 nM VTX-2337 for 48 hours) [%]	ADCC (percent specific lysis) ([3]; patient with low affinity genotype, PBMCs stimulated with 500 nM ADCC enhancer, Rituxan-coated targets, E:T 50:1, FIG. 4) [%]	lysis of K562 target cells (K562 target cells; PBMCs stimulated with 167 nM ADCC enhancer)	lysis of K562 target cells (K562 target cells; PBMCs stimulated with 500 nM ADCC enhancer)	baseline ADCC (percent specific lysis) ([3]; patient with high affinity genotype, E:T 50:1, FIG. 4)	baseline ADCC (percent specific lysis) ([3]; patient with lower affinity genotype, E:T 50:1, FIG. 4) [%]	rituximab-mediated ADCC, specific lysis ([3]; unstimulated PBMC from FF/FV donors) [%]	rituximab-mediated ADCC, specific lysis ([3]; unstimulated PBMC from VV donors) [%]
CCCN(CCC)C(=O)C1=Cc2ccc(-c3ccc(C(=O)N4CCCC4)cc3)cc2N=C(N)C1 [ADCC enhancer, {2-amino-8-[4-(pyrrolidinylcarbonyl)phenyl]-(3H-benzo[f]azepin-4-yl)}-N,N-dipropylcarboxamide]	> 80	40-60%	55.5±2.6	40.0±4.1	30	up to 45%	greater than 90%				
Rituxan: monoclonal antibody against the protein CD20								approximately 30%	10	20.5±2.5	31.7±2.9
